For one experiment, the target named is T1, PDE1A (Homo sapiens, UniProt P54750).
T1 construct: purchased BPS Bioscience Inc
Nature of the experiment: PDE isoform selectivity panel: PDE1A. The following applies: 10 μM compound. It counts as biochemical.

The next experiment deals with PDE1B (Homo sapiens, UniProt Q01064). Nature of the experiment: PDE isoform selectivity panel: PDE1B. It counts as biochemical.
The target in a further experiment is PDE1C (Homo sapiens, UniProt Q14123). Nature of the experiment: PDE isoform selectivity panel: PDE1C. It counts as biochemical.
In a further experiment the target is PDE2A (Homo sapiens, UniProt O00408). Nature of the experiment: PDE isoform selectivity panel: PDE2A. The experiment is classed as biochemical.
The next experiment addresses T2, PDE3A (Homo sapiens, UniProt Q14432).
T2 construct: purchased BPS Bioscience Inc
Nature of the experiment: PDE isoform selectivity panel: PDE3A. The experiment is classed as biochemical. The following applies: 10 μM compound, read-out: % Inhibition of the Enzyme Activity at 10 μM.

The target in another experiment is T3, PDE3B (Homo sapiens, UniProt Q13370).
T3 construct: purchased BPS Bioscience Inc
Nature of the experiment: PDE isoform selectivity panel: PDE3B. It counts as biochemical.

In another experiment the target is T4, PDE4B1 (Homo sapiens, UniProt Q07343).
T4 construct: purchased BPS Bioscience Inc
Description: PDE isoform selectivity panel: PDE4B1. It counts as biochemical.

A further experiment addresses T5, PDE4B2 (Homo sapiens, UniProt Q07343).
T5 construct: purchased BPS Bioscience Inc
Nature of the experiment: PDE isoform selectivity panel: PDE4B2. The experiment is classed as biochemical.

A further experiment deals with T6, PDE4C1 (Homo sapiens, UniProt Q08493).
T6 construct: purchased BPS Bioscience Inc
Nature of the experiment: PDE isoform selectivity panel: PDE4C1. The experiment is classed as biochemical.

The next experiment has as its target T7, PDE4D2 (Homo sapiens, UniProt Q08499).
T7 construct: purchased BPS Bioscience Inc
Nature of the experiment: PDE isoform selectivity panel: PDE4D2. It counts as biochemical.

The next experiment concerns the target T8, PDE5A1 (Homo sapiens, UniProt O76074).
T8 construct: purchased BPS Bioscience Inc
Description: PDE isoform selectivity panel: PDE5A1. It counts as biochemical.

In the next experiment the target is PDE7A (Homo sapiens, UniProt Q13946). Nature of the experiment: PDE isoform selectivity panel: PDE7A. The experiment is classed as biochemical.
In a further experiment the target is PDE7B (Homo sapiens, UniProt Q9NP56). Nature of the experiment: PDE isoform selectivity panel: PDE7B. The experiment is classed as biochemical.
A further experiment has as its target PDE8A1 (Homo sapiens, UniProt O60658). Description: PDE isoform selectivity panel: PDE8A1. It counts as biochemical. The following applies: 10 μM compound.
A further experiment has as its target T9, PDE9A2 (Homo sapiens, UniProt O76083).
T9 construct: purchased BPS Bioscience Inc
Nature of the experiment: PDE isoform selectivity panel: PDE9A2. The following applies: 10 μM compound; for inhibition at 10 µM: read-out: % Inhibition of the Enzyme Activity at 10 μM. It counts as biochemical.

The target in the next experiment is T10, PDE10A1 (Homo sapiens, UniProt Q9Y233).
T10 construct: purchased BPS Bioscience Inc
Description: PDE isoform selectivity panel: PDE10A1. The experiment is classed as biochemical.

The next experiment deals with PDE11A4 (Homo sapiens, UniProt Q9HCR9). Description: PDE isoform selectivity panel: PDE11A4. It counts as biochemical. The following applies: 10 μM compound; for inhibition at 10 µM: read-out: % Inhibition of the Enzyme Activity at 10 μM.
Experiment [1] deals with PKA reporter Reg-F[1]:Cat-F[2] in β2AR-HEK293 cells. Description: Protein-fragment complementation (Rluc PCA PKA reporter) cell-based assay. The following applies: FIG. 4B; 100 μM and 10 μM, 30 min.
Description: Cell culture: Stable β2AR-HEK293 cells were plated into 96-well white walled microliter plates (Corning) and grown in DMEM (Invitrogen) supplemented with 10% fetal bovine serum. Transient transfections of plasmids harboring the Rluc PCA PKA reporter were performed with FuGENE-6 reagent (Roche).
Rluc activities were monitored for the first 10 seconds after addition of the substrate benzyl-coelenterazine (5 μM, Nanolight).
Protein-fragment Complementation (PCA) cell-based assay. […] To further examine the efficacy of the PDE inhibitors described herein, a reporter enzyme was used—Renilla reniformis luciferase (Rluc), where the N- and C-terminal fragments of Rluc are fused to the catalytic subunits (Cat) and inhibiting regulatory subunits (Reg) of protein kinase A (PKA).
In the next experiment the test system is PDE4. The following applies: read-out: EC50 (concentration at 50% activity); FIG. 3; four separate experiments; normalized to 10 μM 1 response.
Experiment [2] concerns the target T11, PDE4A1A (Homo sapiens, UniProt P27815). Nature of the experiment: IMAP fluorescence polarization assay with purified PDE4A1A. The following applies: Table 3; three separate experiments (SD provided); read-out: PDE4A IC50. It counts as biochemical. Set-up: purchased BPS Bioscience.
Description: Briefly, two microliters of PDE4A1A (0.05 ng/μl PDE4A1A, 10 mM Tris pH 7.2, 0.1% BSA, 10 mM MgCl2, 1 mM DTT, and 0.05% NaN3, final concentration) was dispensed into wells of 1536-well black/solid bottom assay plates (Greiner Bio-One North. America, NC) using a Flying Reagent Dispenser (Aurora Discovery, CA). The plates were centrifuged at 1000 rpm for 30 seconds and then 23 nanoliters of test compound was transferred to the assay plate using a Kalypsys pin tool. After incubation at room temperature for 5 min, 2 μL/well of cAMP (100 nM, final concentration) was dispensed for a final assay volume of 4 μL/well. The plates were centrifuged at 1000 rpm for 30 seconds, incubated for 40 minutes at room temperature, and then 4 microliters of IMAP binding reagent were added to the wells.
Experiment [3] addresses T11, PDE4A1A.
Description: (§1) The potency of these compounds was assessed versus 20 different phosphodiesters (PDEs) using methods described in the foregoing Examples.
Setting [4] is: read-out: % Inhibition of the Enzyme Activity at 10 μM.

“Also recorded” adds a separate entry of the source. Like-named read-outs stand apart in the source and are kept apart here.

T9 sequence (O76083 1-533 isoform O76083-2): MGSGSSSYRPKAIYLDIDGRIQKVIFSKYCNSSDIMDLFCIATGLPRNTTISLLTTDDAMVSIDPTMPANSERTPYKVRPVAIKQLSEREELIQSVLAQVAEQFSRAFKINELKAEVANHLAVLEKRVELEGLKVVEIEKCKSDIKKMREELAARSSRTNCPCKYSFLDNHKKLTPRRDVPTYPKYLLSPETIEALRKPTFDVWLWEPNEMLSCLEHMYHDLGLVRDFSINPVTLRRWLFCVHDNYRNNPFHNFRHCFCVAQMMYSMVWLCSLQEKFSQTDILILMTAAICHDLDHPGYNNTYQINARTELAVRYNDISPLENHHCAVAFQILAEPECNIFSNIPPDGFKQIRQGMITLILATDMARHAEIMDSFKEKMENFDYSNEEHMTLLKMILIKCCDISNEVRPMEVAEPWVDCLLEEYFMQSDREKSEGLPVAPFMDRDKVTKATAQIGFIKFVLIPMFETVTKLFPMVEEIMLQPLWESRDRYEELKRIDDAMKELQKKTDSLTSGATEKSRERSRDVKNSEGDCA
Chain of PDE11A4 (Q9HCR9 whole entry, the tested form may be a part, canonical isoform): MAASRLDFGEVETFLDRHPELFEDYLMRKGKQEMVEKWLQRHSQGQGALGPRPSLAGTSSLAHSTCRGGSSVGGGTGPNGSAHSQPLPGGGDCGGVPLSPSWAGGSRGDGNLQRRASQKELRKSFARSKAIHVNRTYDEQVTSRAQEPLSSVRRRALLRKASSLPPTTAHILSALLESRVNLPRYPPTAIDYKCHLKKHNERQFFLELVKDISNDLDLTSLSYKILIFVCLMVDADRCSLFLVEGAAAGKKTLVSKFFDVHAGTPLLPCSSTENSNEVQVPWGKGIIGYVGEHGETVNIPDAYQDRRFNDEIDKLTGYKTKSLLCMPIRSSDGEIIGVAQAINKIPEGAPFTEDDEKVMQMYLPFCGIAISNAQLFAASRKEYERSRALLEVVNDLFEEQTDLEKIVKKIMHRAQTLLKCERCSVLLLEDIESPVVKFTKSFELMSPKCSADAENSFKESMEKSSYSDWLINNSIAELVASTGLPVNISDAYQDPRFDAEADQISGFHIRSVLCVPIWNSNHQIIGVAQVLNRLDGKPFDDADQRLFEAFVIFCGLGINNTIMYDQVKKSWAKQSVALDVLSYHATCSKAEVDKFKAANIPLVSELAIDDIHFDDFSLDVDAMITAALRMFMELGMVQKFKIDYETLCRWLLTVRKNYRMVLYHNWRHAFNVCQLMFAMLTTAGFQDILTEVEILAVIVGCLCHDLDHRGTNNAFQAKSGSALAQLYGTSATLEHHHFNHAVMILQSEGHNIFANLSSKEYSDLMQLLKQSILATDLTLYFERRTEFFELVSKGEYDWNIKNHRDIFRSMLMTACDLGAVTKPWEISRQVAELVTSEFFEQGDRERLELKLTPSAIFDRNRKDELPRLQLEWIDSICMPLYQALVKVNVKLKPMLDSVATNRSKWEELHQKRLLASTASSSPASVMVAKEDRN
T11 sequence (P27815 1-647 isoform P27815-4): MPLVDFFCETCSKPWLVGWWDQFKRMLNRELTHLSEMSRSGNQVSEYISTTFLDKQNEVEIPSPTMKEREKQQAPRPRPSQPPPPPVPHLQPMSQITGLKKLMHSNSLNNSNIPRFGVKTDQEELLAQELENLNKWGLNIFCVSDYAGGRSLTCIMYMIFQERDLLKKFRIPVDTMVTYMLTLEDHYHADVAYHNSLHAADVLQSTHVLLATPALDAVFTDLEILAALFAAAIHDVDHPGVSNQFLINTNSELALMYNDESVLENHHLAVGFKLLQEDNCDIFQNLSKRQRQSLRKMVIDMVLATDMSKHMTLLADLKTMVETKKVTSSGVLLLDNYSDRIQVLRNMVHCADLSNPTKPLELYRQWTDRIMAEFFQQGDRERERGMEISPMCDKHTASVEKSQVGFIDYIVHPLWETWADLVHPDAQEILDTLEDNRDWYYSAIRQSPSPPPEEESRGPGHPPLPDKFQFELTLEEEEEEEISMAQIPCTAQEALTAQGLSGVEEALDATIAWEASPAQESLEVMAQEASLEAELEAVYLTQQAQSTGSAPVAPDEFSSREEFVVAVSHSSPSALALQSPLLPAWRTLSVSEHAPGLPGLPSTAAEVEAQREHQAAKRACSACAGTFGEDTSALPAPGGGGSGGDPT
Chain of PDE7A (Q13946 whole entry, canonical isoform): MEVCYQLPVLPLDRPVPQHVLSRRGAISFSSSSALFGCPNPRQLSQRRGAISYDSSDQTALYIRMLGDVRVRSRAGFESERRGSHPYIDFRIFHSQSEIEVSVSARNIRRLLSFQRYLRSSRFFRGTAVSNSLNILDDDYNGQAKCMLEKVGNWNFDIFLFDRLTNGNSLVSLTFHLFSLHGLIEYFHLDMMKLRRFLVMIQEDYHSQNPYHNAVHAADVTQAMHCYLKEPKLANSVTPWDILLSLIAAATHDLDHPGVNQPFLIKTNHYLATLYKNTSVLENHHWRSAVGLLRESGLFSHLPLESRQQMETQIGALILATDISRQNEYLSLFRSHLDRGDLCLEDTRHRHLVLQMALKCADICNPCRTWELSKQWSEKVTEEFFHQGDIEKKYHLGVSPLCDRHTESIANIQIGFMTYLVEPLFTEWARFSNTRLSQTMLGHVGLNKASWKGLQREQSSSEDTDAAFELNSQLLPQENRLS
Chain of PDE8A1 (O60658 whole entry, canonical isoform): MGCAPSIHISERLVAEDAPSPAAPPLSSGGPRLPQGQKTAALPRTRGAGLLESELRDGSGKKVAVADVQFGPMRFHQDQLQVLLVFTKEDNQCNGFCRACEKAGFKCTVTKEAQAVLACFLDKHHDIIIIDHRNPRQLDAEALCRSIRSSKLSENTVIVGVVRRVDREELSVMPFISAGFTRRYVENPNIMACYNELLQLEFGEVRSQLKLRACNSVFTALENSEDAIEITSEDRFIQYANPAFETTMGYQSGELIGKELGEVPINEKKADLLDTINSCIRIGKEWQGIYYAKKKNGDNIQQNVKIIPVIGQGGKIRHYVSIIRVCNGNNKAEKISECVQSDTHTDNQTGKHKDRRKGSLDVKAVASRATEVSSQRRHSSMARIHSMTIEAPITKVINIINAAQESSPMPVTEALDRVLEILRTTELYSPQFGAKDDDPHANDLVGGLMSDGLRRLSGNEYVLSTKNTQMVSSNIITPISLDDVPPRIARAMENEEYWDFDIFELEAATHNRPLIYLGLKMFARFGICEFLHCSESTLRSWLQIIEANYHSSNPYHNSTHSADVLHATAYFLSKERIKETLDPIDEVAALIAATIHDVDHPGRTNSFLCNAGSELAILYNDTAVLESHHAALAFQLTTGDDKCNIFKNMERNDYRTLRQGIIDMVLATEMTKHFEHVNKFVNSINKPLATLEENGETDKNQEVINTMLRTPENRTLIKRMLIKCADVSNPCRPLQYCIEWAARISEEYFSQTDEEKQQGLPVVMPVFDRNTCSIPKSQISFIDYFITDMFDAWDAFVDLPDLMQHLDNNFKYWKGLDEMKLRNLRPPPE
T10 sequence (Q9Y233 1-779 isoform Q9Y233-1): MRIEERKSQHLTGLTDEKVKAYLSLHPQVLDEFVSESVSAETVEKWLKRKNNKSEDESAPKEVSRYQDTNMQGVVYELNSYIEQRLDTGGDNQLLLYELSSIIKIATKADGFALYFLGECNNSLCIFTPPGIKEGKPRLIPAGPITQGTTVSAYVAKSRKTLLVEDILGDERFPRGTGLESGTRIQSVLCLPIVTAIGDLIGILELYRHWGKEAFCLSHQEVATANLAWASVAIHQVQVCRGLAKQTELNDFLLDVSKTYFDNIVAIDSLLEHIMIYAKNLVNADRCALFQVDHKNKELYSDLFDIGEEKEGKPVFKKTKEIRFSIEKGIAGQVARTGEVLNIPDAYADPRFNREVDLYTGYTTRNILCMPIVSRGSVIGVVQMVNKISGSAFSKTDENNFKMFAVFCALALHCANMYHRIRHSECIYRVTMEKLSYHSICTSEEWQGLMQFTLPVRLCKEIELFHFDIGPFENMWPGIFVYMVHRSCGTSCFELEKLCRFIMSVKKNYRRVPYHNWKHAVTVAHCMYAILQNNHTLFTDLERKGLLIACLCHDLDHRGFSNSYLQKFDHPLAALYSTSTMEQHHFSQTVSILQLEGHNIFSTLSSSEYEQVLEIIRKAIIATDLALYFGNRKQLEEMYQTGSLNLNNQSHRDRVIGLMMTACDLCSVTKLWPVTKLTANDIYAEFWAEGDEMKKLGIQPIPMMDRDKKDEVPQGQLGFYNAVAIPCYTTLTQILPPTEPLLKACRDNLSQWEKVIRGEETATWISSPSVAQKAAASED
T6 sequence (Q08493 whole entry): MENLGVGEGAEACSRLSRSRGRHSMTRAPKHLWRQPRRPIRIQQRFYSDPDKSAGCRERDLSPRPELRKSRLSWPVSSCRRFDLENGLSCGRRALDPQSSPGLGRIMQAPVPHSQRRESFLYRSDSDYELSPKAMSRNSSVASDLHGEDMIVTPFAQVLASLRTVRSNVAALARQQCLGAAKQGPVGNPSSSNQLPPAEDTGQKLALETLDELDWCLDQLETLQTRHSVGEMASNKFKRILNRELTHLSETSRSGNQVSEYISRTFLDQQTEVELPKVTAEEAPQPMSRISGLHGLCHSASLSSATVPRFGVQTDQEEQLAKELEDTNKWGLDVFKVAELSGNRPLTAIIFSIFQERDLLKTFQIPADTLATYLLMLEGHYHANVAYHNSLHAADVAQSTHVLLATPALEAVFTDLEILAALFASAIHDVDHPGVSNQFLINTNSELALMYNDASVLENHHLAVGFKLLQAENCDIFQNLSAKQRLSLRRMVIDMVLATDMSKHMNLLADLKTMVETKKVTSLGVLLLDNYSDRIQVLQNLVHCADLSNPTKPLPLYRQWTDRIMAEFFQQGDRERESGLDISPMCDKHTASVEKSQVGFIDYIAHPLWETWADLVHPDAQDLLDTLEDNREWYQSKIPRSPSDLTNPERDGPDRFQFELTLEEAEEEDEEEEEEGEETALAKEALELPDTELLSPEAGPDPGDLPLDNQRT
Description for PDE2A: as §1
Description for PDE3A: as §1
Description for PDE3B: as §1
Description for PDE4B1: as §1
Description for PDE7A: as §1
Description for PDE7B: as §1
Description for PDE8A1: as §1

As for `COc1ccc(OC)c(-c2nnc3ccc(-c4ccc(OC)c(O[C@@H]5CCOC5)c4)nn23)c1` [Compound 18, (R)-(−)-3-(2,5-dimethoxyphenyl)-6-(4-methoxy-3-(tetrahydrofuran-3-yloxy)phenyl)-[1,2,4]-triazolo[4,3-b]pyridazine], the “% Inhibition of the Enzyme Activity at 10 μM” value (“% Inhibition” for short) was 32% at PDE1A; 56% on PDE1B (PDE1B, 10 μM compound); “inactive” at PDE8A1; “inactive” at PDE9A2; “inactive” on PDE11A4. Besides, the inhibition at 10 µM at PDE1C (setting [4]) came out at 74%; at PDE2A (setting [4]), 54%; at PDE3A it was 54%; on PDE5A1 (setting [4]), 51%; on PDE7A (setting [4]) it was 59%; on PDE7B (setting [4]), 35%. The inhibition at 10 µM on PDE9A2 and at PDE11A4 was less than 26% in each case. Besides, the IC50 was 2300 nM against PDE3B; 4.1 nM against PDE4B1; 2.9 nM against PDE4B2; 106 nM against PDE4C1; 2.1 nM at PDE4D2; 388 nM against PDE10A1. Moreover, the IC50 on PDE4A1A [2] is 1.5 ± 0.7 nM. In experiment [1], the “effect on luminescence signal (PKA activation)” value was “marked loss of luminescence; also recorded: dose-dependent inhibition”. Besides, in the experiment on PDE4, the EC50 turned out to be 34.2 nM.
For the compound `COc1ccc(OC)c(-c2nnc3n2N=C(c2ccc(OC)c(O[C@@H]4CCOC4)c2)CS3)c1` [Compound 10, (R)-3-(2,5-dimethoxyphenyl)-6-(4-methoxy-3-(tetrahydrofuran-3-yloxy)phenyl)-7H-[1,2,4]-triazolo[3,4-b][1,3,4]thiadiazine], the “% Inhibition” value on PDE1A amounted to 36%; on PDE1C (PDE1C, 10 μM compound) it was 49%; at PDE2A (PDE2A, 10 μM compound), 68%; on PDE5A1 (PDE5A1, 10 μM compound), 58%; on PDE7A (PDE7A, 10 μM compound), 48%; at PDE7B (PDE7B, 10 μM compound), 43%. Moreover, the “% Inhibition” value on PDE8A1, at PDE9A2 and at PDE11A4 was “inactive” each time. The inhibition at 10 µM is 52% at PDE1B (setting [4]), 56% on PDE3A, less than 26% on PDE9A2 and less than 26% at PDE11A4. Further, the IC50 against PDE3B came out at 4600 nM; against PDE4B1, 2.3 nM; against PDE4B2, 1.6 nM; at PDE4C1, 46 nM; on PDE4D2 it was 1.9 nM; on PDE10A1, 632 nM. The values for the IC50 entry on PDE4A1A [3] and on PDE4A1A [2] were “Sub-nanomolar potencies” and 3 nM, respectively. The “effect on luminescence signal (PKA activation)” value in [1] is reported as “marked loss of luminescence; also recorded: dose-dependent inhibition”. For the same compound, in the experiment with PDE4, the EC50 stood at 2.3 nM.

Source of the values: patent publication US20110112079A1, “PHOSPHODIESTERASE INHIBITORS” (priority 2008, published 2011).
